Measured values from ChEMBL document CHEMBL1201862, “PubChem BioAssay data set” (2004).
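Results reflect a 48-hour exposure of cells in 96-well plates to compound at five concentrations. Here, GI50 denotes the concentration required for 50% inhibition of growth.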 The source made the active and inactive calls. No stated cut-off is given here; in the data, active = GI50 up to about 1.1 µM and inactive = higher.

How the values were obtained:
Assay in all cases: inhibition of tumour cell growth, NCI panel, 48 h
NCI-H460 = system: NCI-H460
HL-60 = system: HL-60
SNB-75 = system: SNB-75
A549 = system: A549
SNB-19 = system: SNB-19
HT-29 = system: HT-29
LXFL 529 = system: LXFL 529
HOP-18 = system: HOP-18
CAKI-1 = system: CAKI-1
U-251 = system: U-251
HOP-62 = system: HOP-62
HCC 2998 = system: HCC 2998
Malme-3M = system: Malme-3M
EKVX = system: EKVX
SR = system: SR
HOP-92 = system: HOP-92
ACHN = system: ACHN
UO-31 = system: UO-31
SN12C = system: SN12C
IGROV-1 = system: IGROV-1
M14 = system: M14
SF-295 = system: SF-295
A498 = system: A498
OVCAR-8 = system: OVCAR-8
KM-20L2 = system: KM-20L2
SK-MEL-2 = system: SK-MEL-2
OVCAR-4 = system: OVCAR-4
786-0 = system: 786-0
HCT-116 = system: HCT-116
MOLT-4 = system: MOLT-4
NCI-H23 = system: NCI-H23
SF-539 = system: SF-539
KM12 = system: KM12
UACC-257 = system: UACC-257
K562 = system: K562
TK-10 = system: TK-10
CCRF-CEM = system: CCRF-CEM
NCI-H226 = system: NCI-H226
SF-268 = system: SF-268
SW-620 = system: SW-620
HCT-15 = system: HCT-15
SK-MEL-28 = system: SK-MEL-28
LOX IMVI = system: LOX IMVI
DLD-1 = system: DLD-1
SK-OV-3 = system: SK-OV-3
RXF 631 = system: RXF 631
M19-MEL = system: M19-MEL
SNB-78 = system: SNB-78
UACC-62 = system: UACC-62

CCc1cccc(C)c1NC(=O)C(=O)CC(=O)c1ccc(Cl)s1
GI50 (NCI-H460): > 100 µM (inactive) | GI50 (HL-60): > 100 µM (inactive) | GI50 (SNB-75): > 100 µM (inactive) | GI50 (A549): > 100 µM (inactive) | GI50 (SNB-19): > 100 µM (inactive) | GI50 (HT-29): > 100 µM (inactive) | GI50 (LXFL 529): > 100 µM (inactive) | GI50 (HOP-18): > 100 µM (inactive) | GI50 (CAKI-1): > 100 µM (inactive) | GI50 (U-251): > 100 µM (inactive) | GI50 (HOP-62): > 100 µM (inactive) | GI50 (HCC 2998): > 100 µM (inactive) | GI50 (Malme-3M): > 100 µM (inactive) | GI50 (EKVX): > 100 µM (inactive) | GI50 (SR): > 100 µM (inactive) | GI50 (HOP-92): > 100 µM (inactive) | GI50 (ACHN): > 100 µM (inactive) | GI50 (UO-31): > 100 µM (inactive) | GI50 (SN12C): > 100 µM (inactive) | GI50 (IGROV-1): > 100 µM (inactive) | GI50 (M14): > 100 µM (inactive) | GI50 (SF-295): > 100 µM (inactive) | GI50 (A498): > 100 µM (inactive) | GI50 (OVCAR-8): > 100 µM (inactive) | GI50 (KM-20L2): > 100 µM (inactive) | GI50 (SK-MEL-2): > 100 µM (inactive) | GI50 (OVCAR-4): > 100 µM (inactive) | GI50 (786-0): > 100 µM (inactive) | GI50 (HCT-116): > 100 µM (inactive) | GI50 (MOLT-4): > 100 µM (inactive) | GI50 (NCI-H23): > 100 µM (inactive) | GI50 (SF-539): > 100 µM (inactive) | GI50 (KM12): > 100 µM (inactive) | GI50 (UACC-257): > 100 µM (inactive) | GI50 (K562): > 100 µM (inactive) | GI50 (TK-10): > 100 µM (inactive) | GI50 (CCRF-CEM): > 100 µM (inactive) | GI50 (NCI-H226): > 100 µM (inactive) | GI50 (SF-268): > 100 µM (inactive) | GI50 (SW-620): > 100 µM (inactive) | GI50 (HCT-15): > 100 µM | GI50 (SK-MEL-28): > 100 µM (inactive) | GI50 (LOX IMVI): > 100 µM (inactive) | GI50 (DLD-1): > 100 µM (inactive) | GI50 (SK-OV-3): > 100 µM (inactive) | GI50 (RXF 631): > 100 µM (inactive) | GI50 (M19-MEL): > 100 µM (inactive) | GI50 (SNB-78): > 100 µM (inactive) | GI50 (UACC-62): > 100 µM (inactive)
